Measurements as given in ChEMBL document CHEMBL3991601, “The target landscape of clinical kinase drugs” (Science, 2017).
Calls of active or inactive are those of the source.

Legend:
[1] = biological target: T1, Serine/threonine-protein kinase PLK4 (Homo sapiens, UniProt O00444)
T1 sequence (O00444 whole entry): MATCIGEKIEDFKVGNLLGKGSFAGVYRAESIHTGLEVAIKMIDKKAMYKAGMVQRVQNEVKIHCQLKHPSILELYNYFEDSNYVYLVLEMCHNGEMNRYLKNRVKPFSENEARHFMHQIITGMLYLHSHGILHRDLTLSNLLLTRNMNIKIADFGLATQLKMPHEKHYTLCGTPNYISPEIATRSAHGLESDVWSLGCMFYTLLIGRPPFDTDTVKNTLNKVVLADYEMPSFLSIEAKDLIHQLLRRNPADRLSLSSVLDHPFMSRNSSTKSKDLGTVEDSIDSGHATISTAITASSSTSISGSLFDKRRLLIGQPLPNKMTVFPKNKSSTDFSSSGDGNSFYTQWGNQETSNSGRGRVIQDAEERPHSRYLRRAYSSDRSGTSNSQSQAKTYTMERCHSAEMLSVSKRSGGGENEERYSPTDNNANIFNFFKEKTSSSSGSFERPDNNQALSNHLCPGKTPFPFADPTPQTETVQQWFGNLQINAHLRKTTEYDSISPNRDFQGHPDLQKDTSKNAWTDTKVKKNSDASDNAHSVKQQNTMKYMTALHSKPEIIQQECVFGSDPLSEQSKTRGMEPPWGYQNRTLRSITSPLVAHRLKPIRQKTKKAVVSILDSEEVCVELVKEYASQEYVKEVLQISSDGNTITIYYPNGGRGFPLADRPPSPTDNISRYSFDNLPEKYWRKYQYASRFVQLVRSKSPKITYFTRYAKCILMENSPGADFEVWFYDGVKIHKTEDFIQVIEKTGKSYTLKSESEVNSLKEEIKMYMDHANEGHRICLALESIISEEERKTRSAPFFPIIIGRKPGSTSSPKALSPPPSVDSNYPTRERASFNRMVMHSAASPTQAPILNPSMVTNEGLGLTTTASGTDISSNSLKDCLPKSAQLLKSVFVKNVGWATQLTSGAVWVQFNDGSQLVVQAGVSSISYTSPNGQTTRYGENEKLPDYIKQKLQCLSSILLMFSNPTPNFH

[2] = biological target: Serine/threonine-protein kinase MRCK beta (Homo sapiens, UniProt Q9Y5S2)
[3] = biological target: T2, Probable ATP-dependent RNA helicase DDX6 (Homo sapiens, UniProt P26196)
T2 sequence (P26196 whole entry): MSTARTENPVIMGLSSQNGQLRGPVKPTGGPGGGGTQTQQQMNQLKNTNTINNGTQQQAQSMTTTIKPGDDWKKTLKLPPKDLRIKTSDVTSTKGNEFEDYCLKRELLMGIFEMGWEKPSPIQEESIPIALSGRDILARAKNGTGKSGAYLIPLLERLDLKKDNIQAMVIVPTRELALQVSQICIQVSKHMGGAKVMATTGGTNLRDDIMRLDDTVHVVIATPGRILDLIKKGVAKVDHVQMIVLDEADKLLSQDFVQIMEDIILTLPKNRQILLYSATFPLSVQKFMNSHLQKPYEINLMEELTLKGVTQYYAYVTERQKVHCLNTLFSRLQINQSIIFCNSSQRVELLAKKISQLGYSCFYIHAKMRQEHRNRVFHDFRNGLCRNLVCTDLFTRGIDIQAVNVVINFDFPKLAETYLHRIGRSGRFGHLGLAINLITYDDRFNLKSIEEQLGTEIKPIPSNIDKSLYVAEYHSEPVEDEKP

[4] = biological target: Atypical kinase COQ8A, mitochondrial (Homo sapiens, UniProt Q8NI60)
Sequence of Atypical kinase COQ8A, mitochondrial (Q8NI60 whole entry): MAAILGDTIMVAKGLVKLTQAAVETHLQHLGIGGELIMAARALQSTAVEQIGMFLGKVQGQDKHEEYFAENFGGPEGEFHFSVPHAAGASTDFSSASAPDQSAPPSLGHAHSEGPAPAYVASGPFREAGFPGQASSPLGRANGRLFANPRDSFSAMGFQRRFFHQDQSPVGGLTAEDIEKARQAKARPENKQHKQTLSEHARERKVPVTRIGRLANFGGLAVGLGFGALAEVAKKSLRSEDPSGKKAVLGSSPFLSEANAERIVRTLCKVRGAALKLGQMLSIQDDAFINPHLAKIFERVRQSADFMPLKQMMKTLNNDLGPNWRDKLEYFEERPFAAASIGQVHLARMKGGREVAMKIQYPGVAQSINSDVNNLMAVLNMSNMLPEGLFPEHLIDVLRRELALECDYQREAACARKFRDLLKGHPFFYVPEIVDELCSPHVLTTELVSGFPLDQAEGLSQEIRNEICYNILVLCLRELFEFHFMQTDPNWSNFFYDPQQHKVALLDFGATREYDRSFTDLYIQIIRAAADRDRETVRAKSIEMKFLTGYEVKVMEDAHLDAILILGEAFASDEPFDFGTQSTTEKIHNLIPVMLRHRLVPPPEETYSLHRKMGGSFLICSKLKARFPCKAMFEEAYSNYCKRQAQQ

DNA topoisomerase 2-beta = DNA topoisomerase 2-beta (Homo sapiens, UniProt Q02880)
[5] = biological target: T3, Tyrosine--tRNA ligase, cytoplasmic (Homo sapiens, UniProt P54577)
T3 sequence (P54577 whole entry): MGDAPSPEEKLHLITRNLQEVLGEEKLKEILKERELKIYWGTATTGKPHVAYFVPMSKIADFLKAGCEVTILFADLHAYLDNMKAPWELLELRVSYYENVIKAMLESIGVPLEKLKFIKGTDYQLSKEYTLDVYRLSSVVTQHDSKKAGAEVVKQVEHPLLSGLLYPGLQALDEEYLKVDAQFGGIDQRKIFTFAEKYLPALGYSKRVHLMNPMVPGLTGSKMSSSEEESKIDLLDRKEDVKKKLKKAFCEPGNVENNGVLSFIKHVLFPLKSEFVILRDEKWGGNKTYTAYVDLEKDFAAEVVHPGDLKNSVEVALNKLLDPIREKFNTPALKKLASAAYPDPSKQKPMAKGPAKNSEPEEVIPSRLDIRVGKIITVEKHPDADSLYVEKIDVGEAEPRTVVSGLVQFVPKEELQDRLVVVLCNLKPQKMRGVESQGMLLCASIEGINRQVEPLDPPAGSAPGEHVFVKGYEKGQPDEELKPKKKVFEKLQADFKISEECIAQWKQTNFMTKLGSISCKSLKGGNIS

GTP-binding protein 4 = GTP-binding protein 4 (Homo sapiens, UniProt Q9BZE4)
Ephrin type-A receptor 5 = Ephrin type-A receptor 5 (Homo sapiens, UniProt P54756)
[6] = biological target: Mitogen-activated protein kinase 9 (Homo sapiens, UniProt P45984)
Sequence of Mitogen-activated protein kinase 9 (P45984 whole entry): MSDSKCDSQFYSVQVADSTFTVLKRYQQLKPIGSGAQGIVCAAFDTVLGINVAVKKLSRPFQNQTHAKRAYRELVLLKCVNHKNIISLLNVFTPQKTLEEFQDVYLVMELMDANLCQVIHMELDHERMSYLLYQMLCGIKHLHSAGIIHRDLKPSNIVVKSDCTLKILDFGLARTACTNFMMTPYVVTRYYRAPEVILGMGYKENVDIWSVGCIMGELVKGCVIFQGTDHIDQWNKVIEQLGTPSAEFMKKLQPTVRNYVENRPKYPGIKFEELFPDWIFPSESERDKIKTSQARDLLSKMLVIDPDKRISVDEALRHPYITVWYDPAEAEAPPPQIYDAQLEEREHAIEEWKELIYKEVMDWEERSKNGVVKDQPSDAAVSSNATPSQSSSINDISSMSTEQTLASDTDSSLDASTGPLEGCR

[7] = biological target: T4, Serine/threonine-protein kinase ULK3 (Homo sapiens, UniProt Q6PHR2)
T4 sequence (Q6PHR2 whole entry): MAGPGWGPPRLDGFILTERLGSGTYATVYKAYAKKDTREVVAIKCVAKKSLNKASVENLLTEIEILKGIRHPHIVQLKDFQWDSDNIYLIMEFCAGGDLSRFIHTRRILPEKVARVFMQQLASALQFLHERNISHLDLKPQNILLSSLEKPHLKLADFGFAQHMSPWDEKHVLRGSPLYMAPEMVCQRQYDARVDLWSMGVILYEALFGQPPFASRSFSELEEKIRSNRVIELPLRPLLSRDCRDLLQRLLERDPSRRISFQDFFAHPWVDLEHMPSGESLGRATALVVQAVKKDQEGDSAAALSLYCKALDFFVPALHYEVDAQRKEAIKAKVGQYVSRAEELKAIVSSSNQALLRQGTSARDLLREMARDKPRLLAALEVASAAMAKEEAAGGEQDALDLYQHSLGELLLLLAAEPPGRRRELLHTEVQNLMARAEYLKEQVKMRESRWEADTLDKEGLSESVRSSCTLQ

[8] = biological target: BMP-2-inducible protein kinase (Homo sapiens, UniProt Q9NSY1)
Sequence of BMP-2-inducible protein kinase (Q9NSY1 whole entry): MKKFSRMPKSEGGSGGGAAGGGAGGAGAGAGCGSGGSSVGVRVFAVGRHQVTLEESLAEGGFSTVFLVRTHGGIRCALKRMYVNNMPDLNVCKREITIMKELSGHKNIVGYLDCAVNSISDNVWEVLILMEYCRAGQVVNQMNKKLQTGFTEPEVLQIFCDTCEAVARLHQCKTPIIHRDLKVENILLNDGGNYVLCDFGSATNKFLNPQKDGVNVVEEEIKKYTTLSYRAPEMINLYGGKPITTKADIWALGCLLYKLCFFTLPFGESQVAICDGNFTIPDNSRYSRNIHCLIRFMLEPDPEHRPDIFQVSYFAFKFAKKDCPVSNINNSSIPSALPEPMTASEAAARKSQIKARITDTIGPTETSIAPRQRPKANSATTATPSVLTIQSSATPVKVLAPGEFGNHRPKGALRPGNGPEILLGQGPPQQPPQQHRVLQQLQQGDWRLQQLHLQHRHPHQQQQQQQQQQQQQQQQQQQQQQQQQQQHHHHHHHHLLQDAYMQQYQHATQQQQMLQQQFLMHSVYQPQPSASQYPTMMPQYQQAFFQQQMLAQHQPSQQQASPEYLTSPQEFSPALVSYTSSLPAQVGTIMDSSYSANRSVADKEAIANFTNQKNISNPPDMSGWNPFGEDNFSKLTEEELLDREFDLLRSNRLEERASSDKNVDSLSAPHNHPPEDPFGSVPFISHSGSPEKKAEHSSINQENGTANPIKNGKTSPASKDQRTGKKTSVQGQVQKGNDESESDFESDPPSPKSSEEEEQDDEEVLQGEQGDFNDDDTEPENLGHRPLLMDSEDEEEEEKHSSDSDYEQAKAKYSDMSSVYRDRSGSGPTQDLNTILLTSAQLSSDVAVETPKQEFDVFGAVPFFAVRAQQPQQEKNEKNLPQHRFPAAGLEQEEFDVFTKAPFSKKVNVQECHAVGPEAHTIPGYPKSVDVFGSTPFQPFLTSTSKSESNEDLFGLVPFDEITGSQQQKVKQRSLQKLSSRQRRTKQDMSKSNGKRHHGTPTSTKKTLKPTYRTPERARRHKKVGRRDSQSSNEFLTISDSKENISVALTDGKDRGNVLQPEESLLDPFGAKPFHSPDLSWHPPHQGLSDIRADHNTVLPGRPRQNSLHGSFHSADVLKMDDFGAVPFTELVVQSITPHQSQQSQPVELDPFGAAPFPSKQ

Myosin-10 = Myosin-10 (Homo sapiens, UniProt P35580)
Sequence of Myosin-10 (P35580 whole entry): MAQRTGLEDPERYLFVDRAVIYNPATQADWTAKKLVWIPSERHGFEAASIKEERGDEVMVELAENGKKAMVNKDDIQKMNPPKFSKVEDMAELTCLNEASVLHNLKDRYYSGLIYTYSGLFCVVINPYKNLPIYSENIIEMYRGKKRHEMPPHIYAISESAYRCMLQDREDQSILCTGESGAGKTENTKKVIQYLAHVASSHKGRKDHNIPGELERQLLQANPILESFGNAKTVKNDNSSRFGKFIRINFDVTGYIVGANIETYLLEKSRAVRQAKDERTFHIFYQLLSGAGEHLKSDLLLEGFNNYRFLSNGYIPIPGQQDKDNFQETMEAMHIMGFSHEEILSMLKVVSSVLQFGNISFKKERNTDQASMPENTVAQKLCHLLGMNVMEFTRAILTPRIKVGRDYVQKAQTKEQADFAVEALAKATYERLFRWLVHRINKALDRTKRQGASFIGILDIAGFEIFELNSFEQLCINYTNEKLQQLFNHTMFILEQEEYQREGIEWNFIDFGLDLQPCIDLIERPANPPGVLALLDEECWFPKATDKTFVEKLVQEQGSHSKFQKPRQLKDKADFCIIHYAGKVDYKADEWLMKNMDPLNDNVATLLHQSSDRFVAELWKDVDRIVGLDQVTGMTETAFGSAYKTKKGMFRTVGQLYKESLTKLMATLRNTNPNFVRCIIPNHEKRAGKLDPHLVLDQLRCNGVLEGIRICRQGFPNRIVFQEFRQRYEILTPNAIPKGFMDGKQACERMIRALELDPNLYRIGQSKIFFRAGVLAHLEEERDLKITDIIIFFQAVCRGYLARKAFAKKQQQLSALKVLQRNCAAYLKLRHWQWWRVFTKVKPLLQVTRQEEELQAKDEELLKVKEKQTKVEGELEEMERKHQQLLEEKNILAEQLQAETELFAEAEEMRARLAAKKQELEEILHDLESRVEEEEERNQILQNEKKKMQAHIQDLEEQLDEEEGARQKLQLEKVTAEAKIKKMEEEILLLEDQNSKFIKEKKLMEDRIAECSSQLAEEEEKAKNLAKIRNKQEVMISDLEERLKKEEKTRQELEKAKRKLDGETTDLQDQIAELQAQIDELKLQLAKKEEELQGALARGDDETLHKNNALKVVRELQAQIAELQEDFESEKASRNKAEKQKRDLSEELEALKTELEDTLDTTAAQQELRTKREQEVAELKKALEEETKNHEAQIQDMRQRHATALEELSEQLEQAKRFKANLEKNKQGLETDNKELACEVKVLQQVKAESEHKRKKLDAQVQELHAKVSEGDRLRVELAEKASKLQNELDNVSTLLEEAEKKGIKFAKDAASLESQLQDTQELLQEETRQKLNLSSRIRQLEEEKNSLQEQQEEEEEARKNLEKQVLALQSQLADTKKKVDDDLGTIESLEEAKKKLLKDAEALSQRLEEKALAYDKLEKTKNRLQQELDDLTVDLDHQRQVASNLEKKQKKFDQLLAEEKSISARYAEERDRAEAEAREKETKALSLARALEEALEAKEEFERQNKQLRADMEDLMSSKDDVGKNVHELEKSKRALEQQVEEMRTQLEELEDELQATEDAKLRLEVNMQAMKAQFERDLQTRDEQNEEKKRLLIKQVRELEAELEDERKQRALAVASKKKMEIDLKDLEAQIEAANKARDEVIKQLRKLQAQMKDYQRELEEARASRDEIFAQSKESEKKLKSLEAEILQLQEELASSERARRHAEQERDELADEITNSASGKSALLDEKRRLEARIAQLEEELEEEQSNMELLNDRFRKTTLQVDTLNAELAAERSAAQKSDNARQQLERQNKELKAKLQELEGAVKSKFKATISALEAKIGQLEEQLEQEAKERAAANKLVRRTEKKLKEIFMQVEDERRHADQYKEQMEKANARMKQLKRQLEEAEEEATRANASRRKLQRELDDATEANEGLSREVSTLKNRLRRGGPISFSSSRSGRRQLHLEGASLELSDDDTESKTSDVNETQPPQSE
Also: in the data inactive means no Kd found up to 30 µM.

Row | SMILES | Kd [1] | Kd [2] | Kd [3] | Kd [4] | Kd (DNA topoisomerase 2-beta) | Kd [5] | Kd (GTP-binding protein 4) | Kd (Ephrin type-A receptor 5) | Kd [6] | Kd [7] | Kd [8] | Kd (Myosin-10)
1 | COc1ncc(-c2ccc3nccc(-c4ccnnc4)c3c2)cc1NS(=O)(=O)c1ccc(F)cc1F [OMIPALISIB] | > 30 µM (inactive) | > 30 µM (inactive) | > 30 µM (inactive) | > 30 µM (inactive) | > 30 µM (inactive) | > 30 µM (inactive) | > 30 µM (inactive) | > 30 µM (inactive) | > 30 µM (inactive) | > 30 µM (inactive) | > 30 µM (inactive) | > 30 µM (inactive)
2 | CCCCCCCCCCCCCCCCCCOP(=O)([O-])OC1CC[N+](C)(C)CC1 [PERIFOSINE] | > 30 µM (inactive) | > 30 µM (inactive) | > 30 µM (inactive) | > 30 µM (inactive) | > 30 µM (inactive) | > 30 µM (inactive) | > 30 µM (inactive) | > 30 µM (inactive) | > 30 µM (inactive) | > 30 µM (inactive) | > 30 µM (inactive) | > 30 µM (inactive)
3 | Cc1cnc(NC(=O)Nc2cc(Br)c(C)cc2OC[C@@H]2CNCCO2)cn1 [RABUSERTIB] | > 30 µM (inactive) | > 30 µM (inactive) | > 30 µM (inactive) | > 30 µM (inactive) | > 30 µM (inactive) | > 30 µM (inactive) | > 30 µM (inactive) | > 30 µM (inactive) | > 30 µM (inactive) | > 30 µM (inactive) | > 30 µM (inactive) | > 30 µM (inactive)
4 | CNC(=O)c1cc(Oc2ccc(NC(=O)Nc3cc(C(C)(C)C)nn3-c3ccc4ncccc4c3)c(F)c2)ccn1 [REBASTINIB] | 4.09 µM (active) | > 30 µM (inactive) | > 30 µM (inactive) | > 30 µM (inactive) | > 30 µM (inactive) | > 30 µM (inactive) | > 30 µM (inactive) | > 30 µM (inactive) | 0.98 µM (active) | > 30 µM (inactive) | > 30 µM (inactive) | > 30 µM (inactive)
5 | CO[C@H]1C[C@@H]2CC[C@@H](C)[C@@](O)(O2)C(=O)C(=O)N2CCCC[C@H]2C(=O)O[C@H]([C@H](C)C[C@@H]2CC[C@@H](OP(C)(C)=O)[C@H](OC)C2)CC(=O)[C@H](C)/C=C(\C)[C@@H](O)[C@@H](OC)C(=O)[C@H](C)C[C@H](C)/C=C/C=C/C=C/1C [RIDAFOROLIMUS] | > 30 µM (inactive) | > 30 µM (inactive) | > 30 µM (inactive) | > 30 µM (inactive) | > 30 µM (inactive) | > 30 µM (inactive) | > 30 µM (inactive) | > 30 µM (inactive) | > 30 µM (inactive) | > 30 µM (inactive) | > 30 µM (inactive) | > 30 µM (inactive)
6 | N#CC1(c2ccc(NC(=O)c3cccnc3NCc3ccncc3)cc2)CCCC1 [RIVOCERANIB] | > 30 µM (inactive) | > 30 µM (inactive) | > 30 µM (inactive) | > 30 µM (inactive) | > 30 µM (inactive) | > 30 µM (inactive) | > 30 µM (inactive) | > 30 µM (inactive) | > 30 µM (inactive) | > 30 µM (inactive) | > 30 µM (inactive) | > 30 µM (inactive)
7 | Cn1cc(-c2cnn3c(N)c(Br)c([C@@H]4CCCNC4)nc23)cn1 [SCH-900776] | > 30 µM (inactive) | > 30 µM (inactive) | > 30 µM (inactive) | > 30 µM (inactive) | > 30 µM (inactive) | > 30 µM (inactive) | > 30 µM (inactive) | > 30 µM (inactive) | > 30 µM (inactive) | > 30 µM (inactive) | 2.68 µM | > 30 µM (inactive)
8 | CO[C@H]1C[C@@H]2CC[C@@H](C)[C@@](O)(O2)C(=O)C(=O)N2CCCC[C@H]2C(=O)O[C@H]([C@H](C)C[C@@H]2CC[C@@H](O)[C@H](OC)C2)CC(=O)[C@H](C)/C=C(\C)[C@@H](O)[C@@H](OC)C(=O)[C@H](C)C[C@H](C)/C=C/C=C/C=C/1C [SIROLIMUS] | > 30 µM (inactive) | > 30 µM (inactive) | > 30 µM (inactive) | > 30 µM (inactive) | > 30 µM (inactive) | > 30 µM (inactive) | > 30 µM (inactive) | > 30 µM (inactive) | > 30 µM (inactive) | > 30 µM (inactive) | > 30 µM (inactive) | > 30 µM (inactive)
9 | CO[C@H]1C[C@@H]2CC[C@@H](C)[C@@](O)(O2)C(=O)C(=O)N2CCCC[C@H]2C(=O)O[C@H]([C@H](C)C[C@@H]2CC[C@@H](OC(=O)C(C)(CO)CO)[C@H](OC)C2)CC(=O)[C@H](C)/C=C(\C)[C@@H](O)[C@@H](OC)C(=O)[C@H](C)C[C@H](C)/C=C/C=C/C=C/1C [TEMSIROLIMUS] | > 30 µM (inactive) | > 30 µM (inactive) | > 30 µM (inactive) | > 30 µM (inactive) | > 30 µM (inactive) | > 30 µM (inactive) | > 30 µM (inactive) | > 30 µM (inactive) | > 30 µM (inactive) | > 30 µM (inactive) | > 30 µM (inactive) | > 30 µM (inactive)
10 | COc1cc2c(Nc3ccc(Cl)c(Cl)c3F)ncnc2cc1OC[C@@H]1C[C@@H]2CN(C)C[C@@H]2C1 [TESEVATINIB] | > 30 µM (inactive) | > 30 µM (inactive) | > 30 µM (inactive) | > 30 µM (inactive) | > 30 µM (inactive) | > 30 µM (inactive) | > 30 µM (inactive) | > 30 µM (inactive) | > 30 µM (inactive) | > 30 µM (inactive) | > 30 µM (inactive) | > 30 µM (inactive)
